Experimental data taken from article PMC6321019 (International Journal of Molecular Sciences, 2018).
Where a name gives a salt, the structure may show the parent alone.

Columns and labels:
[1] = target: T1, hemagglutinin (HA)-tagged wild-type human histamine H1 receptor (HA-WT) (Homo sapiens, UniProt P35367); assay: [3H]mepyramine displacement binding to membranes of CHO cells expressing HA-WT; details: van 't Hoff plots (37, 25, 14 °C); ∆Hº vs -T∆Sº
T1 construct: membrane preparations

[2] = target: T2, HA-tagged Lys191 mutant of human histamine H1 receptor to alanine (HA-K191A) (Homo sapiens, UniProt P35367, K191A); assay: [3H]mepyramine displacement binding to membranes of CHO cells expressing HA-K191A; details: HA-K191A vs HA-WT; for reduction of affinity by mutation of Lys191 to alanine (times): 25 °C; for Change in Entropy-Dependent Hydrophobic Binding Forces by the mutation of Lys191 to alanine: -T∆Sº from van 't Hoff plots (37, 25, 14 °C); for Change in Enthalpy-Dependent Electrostatic Binding Forces by the mutation of Lys191 to alanine: ∆Hº from van 't Hoff plots (37, 25, 14 °C)
T2 construct: expressed in transfected cells; host or cells: CHO cells; membrane preparations
T2 sequence (P35367 whole entry K191A): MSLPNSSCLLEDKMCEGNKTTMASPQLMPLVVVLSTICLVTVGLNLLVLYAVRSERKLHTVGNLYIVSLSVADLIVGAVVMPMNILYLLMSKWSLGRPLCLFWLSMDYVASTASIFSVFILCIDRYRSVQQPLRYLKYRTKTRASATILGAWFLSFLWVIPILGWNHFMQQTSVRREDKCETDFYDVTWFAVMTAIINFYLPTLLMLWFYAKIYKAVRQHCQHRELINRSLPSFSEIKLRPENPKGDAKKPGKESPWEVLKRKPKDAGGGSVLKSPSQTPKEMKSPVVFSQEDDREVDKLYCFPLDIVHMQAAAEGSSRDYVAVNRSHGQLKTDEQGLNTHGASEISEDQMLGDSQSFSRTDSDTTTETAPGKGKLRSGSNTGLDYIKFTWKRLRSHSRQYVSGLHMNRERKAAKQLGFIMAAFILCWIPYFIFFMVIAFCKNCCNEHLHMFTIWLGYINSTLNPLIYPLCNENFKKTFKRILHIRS

T1 sequence (P35367 whole entry): as the sequence (P35367 whole entry K191A) above, with A191K counted along it

| Structure (SMILES) | thermodynamic driving force of binding (source of negative ∆Gº) to HA-WT [1] | reduction of affinity by mutation of Lys191 to alanine (times) [2] | Change in Binding Affinity by the mutation of Lys191 to alanine [2] | Change in Entropy-Dependent Hydrophobic Binding Forces by the mutation of Lys191 to alanine [2] | enthalpy-dependent electrostatic binding forces, change by mutation of Lys191 to alanine (in words) ([2]; van 't Hoff plots) | Change in Enthalpy-Dependent Electrostatic Binding Forces by the mutation of Lys191 to alanine [2] | entropy-dependent hydrophobic binding forces, change by mutation of Lys191 to alanine (in words) ([2]; van 't Hoff plots) |
| --- | --- | --- | --- | --- | --- | --- | --- |
| O=C(O)COCCN1CCN([C@@H](c2ccccc2)c2ccc(Cl)cc2)CC1 [(S)-cetirizine, (S)-cetirizine dihydrochloride] | predominantly achieved by enthalpy (∆Hº) | ~6.2 times | ↓** | ↑** | significantly reduced | ↓** |  |
| O=C(O)COCCN1CCN([C@H](c2ccccc2)c2ccc(Cl)cc2)CC1 [levocetirizine, Levocetirizine dihydrochloride] | caused by both enthalpy (∆Hº) and entropy (-T∆Sº) | approximately 3.6 times | ↓** | ↓* | significantly increased | ↑* | significantly reduced |
